Structures can show the parent of a compound that is named as a salt.
Target: T1, human recombinant DPP-IV (Homo sapiens, UniProt P27487)
T1 construct: purchased R&D Systems, USA (or produced in-house)
Test: Inhibition of human recombinant DPP-IV (Gly-Pro-AMC hydrolysis, fluorometric)
Assay type: biochemical
Conditions: for IC50: human recombinant DPP-IV, 50 μM Gly-Pro-AMC, 30 min at 30° C.; for % inhibition at 10 nM: compound 10 nM, relative to vehicle controls
Method: Inhibition of Human Recombinant DPP-IV
The proteolytic activity of human recombinant DPP-IV was determined by following the hydrolysis of Gly-Pro-7-amino-4-methylcoumarin (Gly-Pro-AMC) and the fluorometric quantitation of the liberated AMC. Assays were routinely carried out in 96-well flat-bottom black microwell plates. The reaction mixture (100 μl) contained 10 ng of human recombinant DPP-IV enzyme (produced in-house or procured from R&D Systems, USA) in the assay buffer (25 mM Tris-HCl, pH 7.4, 140 mM NaCl, 10 mM KCl and 0.1 mg/ml BSA) and 50 μM Gly-Pro-AMC. After incubation of assay plates at 30° C. for 30 min, the hydrolysis of Gly-Pro-AMC was monitored in a fluorescence microplate reader (Molecular Devices SpectraMax M5), with excitation and emission wavelengths set at 360 nm and 460 nm, respectively.
The inhibition of DPP-IV activity by test compounds was routinely performed by preincubating the enzyme with test compound (10 and 100 nM for primary screening and 8 concentrations from 0.1 to 1000 nM for the dose-response study) or vehicle (0.01% DMSO) for 15 min at 30° C., in a total volume of 90 μl. Test compounds were dissolved in DMSO at a concentration of 10 mM and serially diluted further in assay buffer. The enzyme reaction was initiated by the addition of Gly-Pro-AMC, followed by incubation of assay plates for 30 min at 30° C. and the liberated AMC was measured as described above. A known inhibitor of DPP-IV (positive control) was always included in the assay. Test compounds at various concentrations were always evaluated in duplicate, along with substrate blanks, vehicle controls and positive controls.
The results are expressed as percent inhibition of the enzyme activity relative to vehicle controls. Dose-response studies were conducted for those compounds exerting ≧50% inhibition of activity at 10 nM in primary screening. IC50, defined as the inhibitor concentration which caused a 50% decrease of the activity under assay conditions, was computed using GraphPad Prism software, version 5.0.
The DPP-IV inhibition data (expressed either as IC50 in nanomolar or percent inhibition at a particular compound concentration) is presented in Table 1.

T1 sequence (P27487 whole entry): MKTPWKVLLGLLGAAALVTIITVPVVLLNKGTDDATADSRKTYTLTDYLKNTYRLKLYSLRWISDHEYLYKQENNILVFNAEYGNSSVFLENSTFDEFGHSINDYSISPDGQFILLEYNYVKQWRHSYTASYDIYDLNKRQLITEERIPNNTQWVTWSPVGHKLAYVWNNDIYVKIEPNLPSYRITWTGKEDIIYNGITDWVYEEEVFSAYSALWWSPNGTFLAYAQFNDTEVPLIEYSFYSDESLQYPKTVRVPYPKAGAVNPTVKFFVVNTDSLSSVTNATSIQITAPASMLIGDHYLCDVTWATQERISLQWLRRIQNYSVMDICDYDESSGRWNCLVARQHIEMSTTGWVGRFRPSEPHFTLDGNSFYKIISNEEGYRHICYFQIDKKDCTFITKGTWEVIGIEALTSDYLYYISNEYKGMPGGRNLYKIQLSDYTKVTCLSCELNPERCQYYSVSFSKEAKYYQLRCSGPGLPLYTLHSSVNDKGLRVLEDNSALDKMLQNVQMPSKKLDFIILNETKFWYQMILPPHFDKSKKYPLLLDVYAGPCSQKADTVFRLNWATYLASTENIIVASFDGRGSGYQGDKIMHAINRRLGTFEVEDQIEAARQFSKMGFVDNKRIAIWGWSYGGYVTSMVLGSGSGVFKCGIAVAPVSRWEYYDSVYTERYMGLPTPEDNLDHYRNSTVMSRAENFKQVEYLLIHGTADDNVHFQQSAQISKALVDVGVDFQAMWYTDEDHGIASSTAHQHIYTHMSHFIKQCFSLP

| Compound | IC50 [nM] | other results |
| --- | --- | --- |
| N#C[C@H]1CSCN1C(=O)[C@@H](N)C1CC2CCC(C1)N2C(=O)c1ccc(C(F)(F)F)cc1 (stereo partly drawn) [Compound 20, (4S)-3-{(2S)-2-Amino-2-[8-(4-trifluoromethyl-benzoyl)-8-aza-bicyclo[3.2.1]oct-3-yl]-exo-ethanoyl}-thiazolidin-4-carbonitrile trifluoroacetetic acid salt] | 2.8 |  |
| N#C[C@H]1C[C@H]2C[C@H]2N1C(=O)[C@@H](N)C1CC2CCC(C1)N2C(=O)c1ccnc(F)c1.O=C(O)C(F)(F)F (stereo partly drawn) [Compound 29, (1R,3R,5R)-2-{(2S)-2-Amino-2-[8-(2-fluoropyridine-4-carbonyl)-8-aza-bicyclo[3.2.1]oct-3-yl]-exo-ethanoyl}-2-azabicyclo[3.1.0]hexane-3-carbonitrile trifluoroacetic acid salt] |  | % inhibition at 10 nM: 0% inhibition at 10 nM |
| N#C[C@@H]1C[C@@H]2C[C@@H]2N1C(=O)[C@@H](N)C1CC2CCC(C1)N2CC1CCCCC1.O=C(O)C(F)(F)F (stereo partly drawn) [Compound 48, (1S,3S,5S)-2-{(2S)-2-Amino-2-[8-(cyclohexylmethyl)-8-aza-bicyclo[3.2.1]oct-3-yl]-exo-ethanoyl}-2-azabicyclo-[3.1.0]hexane-3-carbonitrile trifluoroacetic acid salt] |  | % inhibition at 10 nM: 22% inhibition at 10 nM |
| N#C[C@@H]1CCCN1C(=O)[C@@H](N)C1CC2CCC(C1)N2C(=O)Nc1ccc(C(F)(F)F)cc1 (stereo partly drawn) [Compound 22, (2S)-1-{(2S)-2-Amino-2-[8-(4-trifluoromethylphenylcarbamoyl)-8-aza-bicyclo[3.2.1]oct-3-yl]exo-ethanoyl}-pyrrolidin-2-carbonitrile trifluoroacetic acid salt] | 2.83 |  |
| N#C[C@@H]1C[C@@H]2C[C@@H]2N1C(=O)[C@@H](N)C1CC2CCC(C1)N2S(=O)(=O)c1cc(F)cc(F)c1 (stereo partly drawn) [Compound 42, (1S,3S,5S)-2-{(2S)-2-Amino-2-[8-(3,5-difluorobenzenesulfonyl)-8-aza-bicyclo[3.2.1]oct-3-yl]-exo-ethanoyl}-2-azabicyclo[3.1.0]hexane-3-carbonitrile trifluoroacetic acid salt] | 9 |  |
| N#Cc1ccc(N2C3CCC2CC([C@H](N)C(=O)N2[C@H](C#N)C[C@@H]4C[C@@H]42)C3)cc1.O=C(O)C(F)(F)F (stereo partly drawn) [Compound 52, (1S,3S,5S)-2-{(2S)-2-Amino-2-[8-(4-cyano-phenyl)-8-aza-bicyclo[3.2.1]oct-3-yl]-exo-ethanoyl}-2-azabicyclo[3.1.0]hexane-3-carbonitrile trifluoro acetic acid salt] |  | % inhibition at 10 nM: 25% inhibition at 10 nM |
| N#C[C@@H]1C[C@@H]2C[C@@H]2N1C(=O)[C@@H](N)C1CC2CCC(C1)N2Cc1ccncc1.O=C(O)C(F)(F)F (stereo partly drawn) [Compound 55, (1S,3S,5S)-2-{(2S)-2-Amino-2-[8-(pyridin-4-yl-methyl)-8-aza-bicyclo[3.2.1]oct-3-yl]-exo-ethanoyl}-2-azabicyclo[3.1.0]hexane-3-carbonitrile trifluoroacetic acid salt] |  | % inhibition at 10 nM: 45% inhibition at 10 nM |
| C#C[C@H]1CC[C@@H](C#N)N1C(=O)[C@@H](N)C1CC2CCC(C1)N2C(=O)c1ccncc1 (stereo partly drawn) [Compound 64, (2S,5R)-1-{(2S)-2-Amino-2-[8-(pyridin-4-carbonyl)-8-aza-bicyclo[3.2.1]oct-3-yl]-exo-ethanoyl}-5-ethynyl-pyrrolidin-2-carbonitrile di trifluoro acetic acid salt] | 11 |  |
| N#C[C@@H]1C[C@@H]2C[C@@H]2N1C(=O)[C@@H](N)C1CC2CCC(C1)N2C(=O)c1cccs1 (stereo partly drawn) [Compound 34, (1S,3S,5S)-2-{(2S)-2-Amino-2-[8-(thiophene-2-carbonyl)-8-aza-bicyclo[3.2.1]oct-3-yl]-exo-ethanoyl}-2-azabicyclo[3.1.0]hexane-3-carbonitrile trifluoroacetic acid salt] | 12.9 |  |
| CC(=O)N1CCC(C(=O)N2C3CCC2CC([C@H](N)C(=O)N2[C@H](C#N)C[C@@H]4C[C@@H]42)C3)CC1 (stereo partly drawn) [Compound 69, (1S,3S,5S)-2-{(2S)-2-Amino-2-[8-(1-acetyl-piperidin-4-carbonyl)-8-aza-bicyclo[3.2.1]oct-3-yl]-exo-ethanoyl}-2-azabicyclo[3.1.0]hexane-3-carbonitrile trifluoroacetic acid salt] | 13 |  |
| N#C[C@@H]1C[C@@H]2C[C@@H]2N1C(=O)[C@@H](N)C1CC2CCC(C1)N2C(=O)c1cc(F)c(F)cc1F (stereo partly drawn) [Compound 23, (1S,3S,5S)-2-{(2S)-2-Amino-2-[8-(2,4,5-trifluorobenzoyl)-8-aza-bicyclo[3.2.1]oct-3-yl]-exo-ethanoyl}-2-azabicyclo[3.1.0]hexane-3-carbonitrile trifluoroacetic acid salt] | 9.75 |  |
| N[C@H](C(=O)N1CC(F)C1)C1CC2CCC(C1)N2C(=O)c1ccncc1F (stereo partly drawn) [Compound 62, {(2S)-2-Amino-2-[8-(3-fluoropyridine-4-carbonyl)-8-aza-bicyclo[3.2.1]-oct-3-yl]-exo-ethanoyl}-3-fluoroazetidine trifluoroacetic acid salt] |  | inhibition at 0.01 µM (read-out: % inhibition at 10 nM): 12% |
| N#Cc1ccc(N2C3CCC2CC([C@H](N)C(=O)N2[C@H](C#N)C[C@@H]4C[C@@H]42)C3)nc1 (stereo partly drawn) [Compound 51, (1S,3S,5S)-2-{(2S)-2-Amino-2-[8-(5-cyanopyridine-2-yl)-8-aza-bicyclo[3.2.1]oct-3-yl]-exo-ethanoyl}-2-azabicyclo[3.1.0]hexane-3-carbonitrile trifluoroacetic acid salt] | 9.6 |  |
| COc1ccccc1NC(=S)N1C2CCC1CC([C@H](N)C(=O)N1[C@H](C#N)C[C@@H]3C[C@@H]31)C2.O=C(O)C(F)(F)F (stereo partly drawn) [Compound 68, (1S,3S,5S)-2-{(2S)-2-Amino-2-[8-(2-methoxyphenylthiocarbamoyl)-8-aza-bicyclo[3.2.1]oct-3-yl]-exo-ethanoyl}-2-azabicyclo[3.1.0]-hexane-3-carbonitrile trifluoroacetic acid salt] |  | % inhibition at 10 nM: 16% inhibition at 10 nM |
| N#C[C@@H]1C[C@@H]2C[C@@H]2N1C(=O)[C@@H](N)C1CC2CCC(C1)N2C(=O)c1cccnc1 (stereo partly drawn) [Compound 33, (1S,3S,5S)-2-{(2S)-2-Amino-2-[8-(pyridine-3-carbonyl)-8-aza-bicyclo[3.2.1]oct-3-yl]-exo-ethanoyl}-2-azabicyclo[3.1.0]hexane-3-carbonitrile di trifluoroacetic acid salt] | 9.43 |  |
| N#C[C@@H]1CCCN1C(=O)[C@@H](N)C1CC2CCC(C1)N2Cc1cc(F)c(F)cc1F (stereo partly drawn) [Compound 9, (2S)-1-{(2S)-2-Amino-2-[8-(2,4,5-trifluorobenzyl)-8-aza-bicyclo[3.2.1]oct-3-yl]-exo-ethanoyl}-pyrrolidin-2-carbonitrile trifluoroacetic acid salt] | 3.13 |  |
| N#C[C@@H]1C[C@@H]2C[C@@H]2N1C(=O)[C@@H](N)C1CC2CCC(C1)N2C(=O)Cc1ccncc1 (stereo partly drawn) [Compound 54, (1S,3S,5S)-2-{(2S)-2-Amino-2-[8-(2-pyridin-4-yl-acetyl)-8-aza-bicyclo[3.2.1]oct-3-yl]-exo-ethanoyl}-2-azabicyclo[3.1.0]hexane-3-carbonitrile di trifluoroacetic acid salt] | 3.3 |  |
| N#C[C@@H]1C[C@@H]2C[C@@H]2N1C(=O)[C@H](N)C1CC2CCC(C1)N2C(=O)c1cnccn1.O=C(O)C(F)(F)F (stereo partly drawn) [Compound 36, (1S,3S,5S)-2-{(2R)-2-Amino-2-[8-(pyrazine-2-carbonyl)-8-aza-bicyclo[3.2.1]oct-3-yl]-exo-ethanoyl}-2-azabicyclo[3.1.0]hexane-3-carbonitrile trifluoroacetic acid salt] |  | % inhibition at 10 nM: 17% inhibition at 10 nM |
| N[C@H](C(=O)N1CCSC1)C1CC2CCC(C1)N2C(=O)c1ccc(C(F)(F)F)cc1 (stereo partly drawn) [Compound 21, 3-{(2S)-2-Amino-2-[8-(4-trifluoromethyl-benzoyl)-8-aza-bicyclo[3.2.1]-oct-3-yl]-exo-ethanoyl}-1,3-thiazolidin trifluoroacetic acid salt] | 17.9 |  |
| N#C[C@@H]1C[C@H](F)CN1C(=O)[C@@H](N)C1CC2CCC(C1)N2Cc1cc(F)c(F)cc1F (stereo partly drawn) [Compound 19, (2S,4S)-1-{(2S)-2-Amino-2-[8-(2,4,5-trifluorobenzyl)-8-aza-bicyclo[3.2.1]oct-3-yl]-exo-ethanoyl}-4-fluoro-pyrrolidin-2-carbonitrile trifluoroacetic acid salt] | 6.25 |  |
| N#C[C@@H]1C[C@@H]2C[C@@H]2N1C(=O)[C@@H](N)C1CC2CCC(C1)N2S(=O)(=O)c1cccs1 (stereo partly drawn) [Compound 57, (1S,3S,5S)-2-{(2S)-2-Amino-2-[8-(thiophene-2-sulfonyl)-8-aza-bicyclo[3.2.1]oct-3-yl]-exo-ethanoyl}-2-azabicyclo[3.1.0]hexane-3-carbonitrile trifluoroacetic acid salt] | 8 |  |

From patent US8338450B2, “Compounds as dipeptidyl peptidase IV (DPP IV) inhibitors” (Lupin Limited, priority 2007, dated 2012)
